Data published in the NIST ThermoML archive (doi:10.1021/je300873x).
Numbers after ± are expanded uncertainties.

Assay: mn = molality of the nth substance listed, in mol/kg
Conditions: for surface tension liquid-gas: Pendant drop shape; for electrical conductivity: Liquid, Digital conductivity meter

`CCCCCCCCCCCCCCCC[N+](C)(C)CCO.[Br-]` [N-cetyl-hydroxyethyl-dimethyl ammonium bromide] + O gave a surface tension liquid-gas (298.15 K, m1 = 0.00016) of 61.83 ± 0.56 mN/m, a surface tension liquid-gas (298.15 K, m1 = 0.00033) of 53.61 ± 0.49 mN/m and a surface tension liquid-gas (298.15 K, m1 = 0.00049) of 45.49 ± 0.43 mN/m. The surface tension liquid-gas (298.15 K, m1 = 0.00059) was 41.63 ± 0.4 mN/m, the surface tension liquid-gas (298.15 K, m1 = 0.00069) was 39.31 ± 0.38 mN/m and the surface tension liquid-gas (298.15 K, m1 = 0.00074) was 38.39 ± 0.38 mN/m. For the same compound, the surface tension liquid-gas (298.15 K, m1 = 0.00078) was 37.61 ± 0.37 mN/m, the surface tension liquid-gas (298.15 K, m1 = 0.00083) was 37.58 ± 0.37 mN/m and the surface tension liquid-gas (298.15 K, m1 = 0.00088) was 37.3 ± 0.37 mN/m. For the same compound, the surface tension liquid-gas (298.15 K, m1 = 0.00098) was 37.24 ± 0.37 mN/m, the surface tension liquid-gas (298.15 K, m1 = 0.00108) was 37.15 ± 0.37 mN/m and the surface tension liquid-gas (298.15 K, m1 = 0.00118) was 37.12 ± 0.37 mN/m. The electrical conductivity (298.15 K, m1 = 0.00075) was 0.0068 ± 0.0001 S/m, the electrical conductivity (298.15 K, m1 = 0.00078) was 0.007 ± 0.0001 S/m and the electrical conductivity (298.15 K, m1 = 0.00081) was 0.0072 ± 0.0001 S/m. The electrical conductivity (298.15 K, m1 = 0.00084) was 0.0074 ± 0.0001 S/m, the electrical conductivity (298.15 K, m1 = 0.00088) was 0.0076 ± 0.0001 S/m and the electrical conductivity (298.15 K, m1 = 0.00092) was 0.0078 ± 0.0001 S/m. The electrical conductivity (298.15 K, m1 = 0.00096) was 0.0079 ± 0.0001 S/m, the electrical conductivity (298.15 K, m1 = 0.00101) was 0.008 ± 0.0001 S/m and the electrical conductivity (298.15 K, m1 = 0.00106) was 0.0082 ± 0.0001 S/m. For the same compound, the electrical conductivity (298.15 K, m1 = 0.00112) was 0.0084 ± 0.0001 S/m, the electrical conductivity (298.15 K, m1 = 0.00119) was 0.0085 ± 0.0001 S/m and the electrical conductivity (298.15 K, m1 = 0.00126) was 0.0087 ± 0.0001 S/m. It also gave an electrical conductivity (298.15 K, m1 = 0.00135) of 0.0089 ± 0.0001 S/m, an electrical conductivity (298.15 K, m1 = 0.00144) of 0.0091 ± 0.0001 S/m and an electrical conductivity (298.15 K, m1 = 0.00156) of 0.0094 ± 0.0001 S/m. For the same compound, the electrical conductivity (298.15 K, m1 = 0.00169) was 0.0097 ± 0.0001 S/m, the electrical conductivity (298.15 K, m1 = 0.00184) was 0.0101 ± 0.0001 S/m and the electrical conductivity (298.15 K, m1 = 0.00202) was 0.0105 ± 0.0001 S/m. The electrical conductivity (303.15 K, m1 = 0.00075) was 0.0076 ± 0.0001 S/m, the electrical conductivity (303.15 K, m1 = 0.00078) was 0.0078 ± 0.0001 S/m and the electrical conductivity (303.15 K, m1 = 0.00081) was 0.0081 ± 0.0001 S/m. The electrical conductivity (303.15 K, m1 = 0.00084) was 0.0083 ± 0.0001 S/m, the electrical conductivity (303.15 K, m1 = 0.00088) was 0.0085 ± 0.0001 S/m and the electrical conductivity (303.15 K, m1 = 0.00092) was 0.0088 ± 0.0001 S/m. It also gave an electrical conductivity (303.15 K, m1 = 0.00096) of 0.009 ± 0.0001 S/m, an electrical conductivity (303.15 K, m1 = 0.00101) of 0.0091 ± 0.0001 S/m and an electrical conductivity (303.15 K, m1 = 0.00106) of 0.0093 ± 0.0001 S/m. For the same compound, the electrical conductivity (303.15 K, m1 = 0.00112) was 0.0095 ± 0.0001 S/m, the electrical conductivity (303.15 K, m1 = 0.00119) was 0.0097 ± 0.0001 S/m and the electrical conductivity (303.15 K, m1 = 0.00126) was 0.0099 ± 0.0001 S/m. For the same compound, the electrical conductivity (303.15 K, m1 = 0.00135) was 0.0101 ± 0.0001 S/m, the electrical conductivity (303.15 K, m1 = 0.00144) was 0.0104 ± 0.0001 S/m and the electrical conductivity (303.15 K, m1 = 0.00155) was 0.0107 ± 0.0001 S/m. It also gave an electrical conductivity (303.15 K, m1 = 0.00168) of 0.0111 ± 0.0001 S/m, an electrical conductivity (303.15 K, m1 = 0.00184) of 0.0114 ± 0.0001 S/m and an electrical conductivity (303.15 K, m1 = 0.00202) of 0.0119 ± 0.0001 S/m. The electrical conductivity (308.15 K, m1 = 0.00075) was 0.0083 ± 0.0001 S/m, the electrical conductivity (308.15 K, m1 = 0.00078) was 0.0086 ± 0.0001 S/m and the electrical conductivity (308.15 K, m1 = 0.00081) was 0.0089 ± 0.0001 S/m. For the same compound, the electrical conductivity (308.15 K, m1 = 0.00084) was 0.0092 ± 0.0001 S/m, the electrical conductivity (308.15 K, m1 = 0.00088) was 0.0095 ± 0.0001 S/m and the electrical conductivity (308.15 K, m1 = 0.00092) was 0.0097 ± 0.0001 S/m. For the same compound, the electrical conductivity (308.15 K, m1 = 0.00096) was 0.01 ± 0.0001 S/m, the electrical conductivity (308.15 K, m1 = 0.00101) was 0.0102 ± 0.0001 S/m and the electrical conductivity (308.15 K, m1 = 0.00106) was 0.0105 ± 0.0001 S/m. For the same compound, the electrical conductivity (308.15 K, m1 = 0.00112) was 0.0107 ± 0.0001 S/m, the electrical conductivity (308.15 K, m1 = 0.00119) was 0.0108 ± 0.0001 S/m and the electrical conductivity (308.15 K, m1 = 0.00126) was 0.0111 ± 0.0001 S/m. The electrical conductivity (308.15 K, m1 = 0.00134) was 0.0113 ± 0.0001 S/m, the electrical conductivity (308.15 K, m1 = 0.00144) was 0.0117 ± 0.0001 S/m and the electrical conductivity (308.15 K, m1 = 0.00155) was 0.012 ± 0.0001 S/m. For the same compound, the electrical conductivity (308.15 K, m1 = 0.00168) was 0.0125 ± 0.0001 S/m, the electrical conductivity (308.15 K, m1 = 0.00183) was 0.0129 ± 0.0001 S/m and the electrical conductivity (308.15 K, m1 = 0.00202) was 0.0134 ± 0.0001 S/m. The electrical conductivity (313.15 K, m1 = 0.00077) was 0.0094 ± 0.0001 S/m, the electrical conductivity (313.15 K, m1 = 0.0008) was 0.0098 ± 0.0001 S/m and the electrical conductivity (313.15 K, m1 = 0.00084) was 0.0101 ± 0.0001 S/m. For the same compound, the electrical conductivity (313.15 K, m1 = 0.00087) was 0.0105 ± 0.0001 S/m, the electrical conductivity (313.15 K, m1 = 0.00091) was 0.0108 ± 0.0001 S/m and the electrical conductivity (313.15 K, m1 = 0.00096) was 0.0111 ± 0.0001 S/m. It also gave an electrical conductivity (313.15 K, m1 = 0.00101) of 0.0114 ± 0.0001 S/m, an electrical conductivity (313.15 K, m1 = 0.00106) of 0.0118 ± 0.0001 S/m and an electrical conductivity (313.15 K, m1 = 0.00112) of 0.012 ± 0.0001 S/m. It also gave an electrical conductivity (313.15 K, m1 = 0.00118) of 0.0123 ± 0.0001 S/m, an electrical conductivity (313.15 K, m1 = 0.00126) of 0.0126 ± 0.0001 S/m and an electrical conductivity (313.15 K, m1 = 0.00134) of 0.0129 ± 0.0001 S/m. For the same compound, the electrical conductivity (313.15 K, m1 = 0.00144) was 0.0133 ± 0.0001 S/m, the electrical conductivity (313.15 K, m1 = 0.00155) was 0.0137 ± 0.0001 S/m and the electrical conductivity (313.15 K, m1 = 0.00168) was 0.0141 ± 0.0001 S/m. For the same compound, the electrical conductivity (313.15 K, m1 = 0.00183) was 0.0147 ± 0.0001 S/m, the electrical conductivity (313.15 K, m1 = 0.00201) was 0.0154 ± 0.0001 S/m and the electrical conductivity (318.15 K, m1 = 0.00074) was 0.0101 ± 0.0001 S/m. It also gave an electrical conductivity (318.15 K, m1 = 0.00077) of 0.0104 ± 0.0001 S/m, an electrical conductivity (318.15 K, m1 = 0.0008) of 0.0109 ± 0.0001 S/m and an electrical conductivity (318.15 K, m1 = 0.00084) of 0.0112 ± 0.0001 S/m. For the same compound, the electrical conductivity (318.15 K, m1 = 0.00087) was 0.0116 ± 0.0001 S/m, the electrical conductivity (318.15 K, m1 = 0.00091) was 0.0119 ± 0.0001 S/m and the electrical conductivity (318.15 K, m1 = 0.00096) was 0.0124 ± 0.0001 S/m. For the same compound, the electrical conductivity (318.15 K, m1 = 0.001) was 0.0128 ± 0.0001 S/m, the electrical conductivity (318.15 K, m1 = 0.00106) was 0.0132 ± 0.0001 S/m and the electrical conductivity (318.15 K, m1 = 0.00112) was 0.0137 ± 0.0001 S/m. The electrical conductivity (318.15 K, m1 = 0.00118) was 0.014 ± 0.0001 S/m, the electrical conductivity (318.15 K, m1 = 0.00126) was 0.0144 ± 0.0001 S/m and the electrical conductivity (318.15 K, m1 = 0.00134) was 0.0148 ± 0.0001 S/m. For the same compound, the electrical conductivity (318.15 K, m1 = 0.00143) was 0.0152 ± 0.0001 S/m, the electrical conductivity (318.15 K, m1 = 0.00154) was 0.0158 ± 0.0001 S/m and the electrical conductivity (318.15 K, m1 = 0.00167) was 0.0164 ± 0.0001 S/m. The electrical conductivity (318.15 K, m1 = 0.00183) was 0.0169 ± 0.0001 S/m, the electrical conductivity (318.15 K, m1 = 0.00201) was 0.0174 ± 0.0001 S/m and the electrical conductivity (323.15 K, m1 = 0.00074) was 0.0107 ± 0.0001 S/m. The electrical conductivity (323.15 K, m1 = 0.00077) was 0.0111 ± 0.0001 S/m, the electrical conductivity (323.15 K, m1 = 0.0008) was 0.0116 ± 0.0001 S/m and the electrical conductivity (323.15 K, m1 = 0.00083) was 0.012 ± 0.0001 S/m. The electrical conductivity (323.15 K, m1 = 0.00087) was 0.0124 ± 0.0001 S/m, the electrical conductivity (323.15 K, m1 = 0.00091) was 0.0129 ± 0.0001 S/m and the electrical conductivity (323.15 K, m1 = 0.00095) was 0.0134 ± 0.0001 S/m. It also gave an electrical conductivity (323.15 K, m1 = 0.001) of 0.014 ± 0.0001 S/m, an electrical conductivity (323.15 K, m1 = 0.00105) of 0.0143 ± 0.0001 S/m and an electrical conductivity (323.15 K, m1 = 0.00111) of 0.0151 ± 0.0001 S/m. It also gave an electrical conductivity (323.15 K, m1 = 0.00118) of 0.0157 ± 0.0001 S/m, an electrical conductivity (323.15 K, m1 = 0.00125) of 0.016 ± 0.0001 S/m and an electrical conductivity (323.15 K, m1 = 0.00134) of 0.0166 ± 0.0001 S/m. The electrical conductivity (323.15 K, m1 = 0.00143) was 0.0171 ± 0.0001 S/m, the electrical conductivity (323.15 K, m1 = 0.00154) was 0.0176 ± 0.0001 S/m and the electrical conductivity (323.15 K, m1 = 0.00167) was 0.0182 ± 0.0001 S/m. It also gave an electrical conductivity (323.15 K, m1 = 0.00182) of 0.0189 ± 0.0001 S/m and an electrical conductivity (323.15 K, m1 = 0.002) of 0.0196 ± 0.0001 S/m.
